Patent US7541379B2, “Di(amido-substituted)heteroarene compounds as osteoblastogenesis agents” (The University of Hong Kong, priority 2005, dated 2009)
“Also recorded” adds a separate entry of the source.

Key:
ALP mRNA = ALP mRNA expression by real-time quantitative RT-PCR in MC3T3-E1 (clone 4) cells; format: cell-based; conditions: 4 days, osteogenic medium
Procedure: (§1) Cell culture. MC3T3-E1 (clone 4) cells ([…], Manassas, Va., U.S.A.) were maintained in complete growth medium, i.e., alpha-MEM supplemented with 100 U/mL penicillin, 100 μg/mL streptomycin, and 10% heat-inactivated fetal bovine serum (JRH Biosciences, Lenexa, Kans., U.S.A. Ascorbic acid (AsA) and β-glycerophosphate (β-GP) were purchased from Sigma-Aldrich Co. (St. Louis, […]., U.S.A.). For the screening of osteoblastogenesis-inducing compounds, cells were plated in 24-well plates in complete growth medium at 5×10^4 cells/cm^2 and after overnight incubation, potential osteoblastogenesis modulating agents were added at 3 different concentrations, each with 10 fold difference. […]
(§2) Real-time quantitative reverse transcription (RT) PCR. […] ALP and osterix mRNA expression was determined by RT followed by real-time TaqMan PCR analysis. […] All PCR reactions were performed in triplicate and data obtained were analyzed using the comparative CT method (Applied Biosystems) with ALP/osterix signals normalized to 18S signal for each sample.
MC3T3-E1 (clone 4) cells were cultured for 4 days, and total RNA was extracted. […] Expression level of osterix expression in MC3T3-E1 (clone 4) cells was determined using Real-Time TaqMan polymerase chain reaction (PCR). […]

osterix mRNA = experiment: Osterix mRNA expression by real-time quantitative RT-PCR in MC3T3-E1 (clone 4) cells; format: cell-based; conditions: 1 μg/mL (high concentrations), 4 days, osteogenic medium
Procedure: as §1, §2
MC3T3-E1 (clone 4) cells were cultured for 4 days, and total RNA was extracted. […] Expression level of osterix expression in MC3T3-E1 (clone 4) cells was determined using Real-Time TaqMan PCR. […]

[1] = Cytotoxicity by standard MTT assay on Vero cells; format: cell-based, African green monkey; conditions: African green monkey, MTT assay, read-out: TC50 (the source's name)
Procedure: (§3) Cytotoxicity assay. Vero cells, an African green monkey cell line were purchased from American Type Culture Collection (ATCC) and Cell Proliferation Kit I MTT (3-[4,5-dimethylth-iazol-2-yl]-2,5-diphenyltetrazolium bromide) assay was purchased from Roche. Normal human lung fibroblast cell line (CCD-19Lu) was obtained commercially from ATCC. CCD-19Lu cells were maintained in a minimum essential medium with Earle's balanced salts (MEM). The media were supplemented with L-glutamine (2 mM), fetal bovine serum (10%), penicillin (100 U/mL) and streptomycin (100 μg/mL). Cultures were incubated at 37° C. in a 5% CO2/95% air humidified atmosphere. Cell culture flasks and 96-well microtitre plates were purchased from Nalge Nunc Int. Culture medium, other medium constituents and phosphate buffered saline (PBS) were from Gibco BRL.
(§4) The cytotoxicity of selected compounds was determined by MTT according to manufacturer's (Roche) instructions. The experiment (cell viability using MTT as an indicator) was carried out in triplicates. The TC50 (on Vero cells, an African green monkey cell line) is ca. 50 μM, it is concluded that these compounds may be useful for osteoblastogenesis development.

[2] = system: African green monkey Vero cells; experiment: Cytotoxicity by standard MTT assay on Vero cells; format: cell-based
Procedure: as §3, §4

ALP = ALP enzyme activity assay (PNPP hydrolysis) in MC3T3-E1 (clone 4) cells; format: cell-based
Procedure: Cell culture. […]
(§5) ALP assay. ALP activity was measured as p-nitrophenol produced from the hydrolysis of p-nitrophenyl phosphate (PNPP). […] The reaction was stopped by the addition of NaOH (final concentration, 0.5 M) and the absorbance was measured at 410 nm. Enzyme activity was normalized to the protein content determined using Protein Assay Kit (Bio-Rad). […]
as §5, with “MC3T3-E1 (clone 4) cells were cultured for 4, 10, and 14 days with the presence of VCM supplemented with different concentrations (range from 0.01 to 1 μg/mL) of di(amido-substituted)heteroarene compounds. […]” for “ALP assay.”, “absorbance” for “absorbance was”

CCD-19L cells = experiment: Cytotoxicity by MTT assay on CCD-19L cells (vs vehicle control); format: cell-based, human; conditions: 72 h
Excerpt: As used herein, the term “CCD-19L cells” described herein refers to normal human lung fibroblast cell line.
as §3
Assays on cytotoxic effects were conducted in 96-well flat-bottomed microtitre plates. […] The formation of formazan was measured with a microtitre plate reader at 550 nm and the percentages of cell survival were determined. The cytotoxicity was evaluated based on the percentage cell survival in a dose dependent manner relative to the negative control (FIG. 8).

MC3T3-E1 (clone 4) cells [3] = experiment: Bone nodule formation and mineralization (Alizarin red stain); format: cell-based; conditions: 0.01 to 1 μg/mL, 26 days, osteogenic conditions
Procedure: Cells were washed twice with ice-cold PBS and then fixed in ice-cold fixative (10% formalin in PBS) for 15 min. After washed with deionized water, fixed cells were stained with 1% alizarin S solution, pH 4.2 for 15 min and then were washed thoroughly with deionized water. Mineralized matrix was then detected.

MC3T3-E1 (clone 4) cells [4] = experiment: MTT-based cell proliferation assay; conditions: 0.01 to 1 μg/mL, 2 days, osteogenic medium
Procedure: (§6) Cell proliferation assay. Cell proliferation studies were performed as previously described using MTT-based (GE Healthcare, Piscataway, N.J., USA) cell proliferation assays (Cheung et a/, FEBS Lett (2006), 580, 121). After treatment with potential osteoblastogenesis modulating agents for 2 days, MTT was added at a final concentration of 0.5 mg/ml for 3 h, cells were solubilized with isopropanol containing 0.1% sodium dodecyl sulfate and 0.04 N hydrochloric acid, and the absorbance measured at 570 nm. All experiments were repeated three times.
as §6, with “Cell” for “Cell proliferation assay. Cell”, “MTT” for “MTT-based”, “USA)” for “USA) cell proliferation”, “al,” for “a/,”, “the candidate compounds (concentrations 0.01 to 1 μg/mL)” for “potential osteoblastogenesis modulating agents”

SMILES: Cc1ccc(S(=O)(=O)Nc2cn(C)cc2NS(=O)(=O)c2ccc(C)cc2)cc1 [compound 1]
- ALP mRNA expression up-regulated (ALP mRNA; 0.1 μg/mL): 16%
- effect on ALP mRNA expression (ALP mRNA; 0.1 and 1 μg/mL): enhanced ALP mRNA expression
- effect on osterix mRNA expression (osterix mRNA): effectively up-regulated mRNA expression of osterix; also recorded: enhanced osterix mRNA expression
- CC50 [1]: 57 µM
- CC50 ([2]; MTT assay, read-out: TC50 (the source's name)): ≤ 57 µM
- cytotoxicity on Vero cells ([2]; standard MTT assay): low cytotoxicity
- effect on ALP enzyme activity (ALP; 0.01 to 1 μg/mL, osteogenic medium, 4, 10 and 14 days): significantly enhanced ALP enzyme activity in a dose-dependent manner
- ALP activity up-regulated compared to the control (ALP; 14 days of treatment, 0.1 μg/mL, osteogenic medium): 2 fold
- cytotoxicity on CCD-19L cells (CCD-19L cells): low cytotoxicity
- effect on mineralization of bone nodules (MC3T3-E1 (clone 4) cells [3]): potentiated mineralization of bone nodules
- effect on cell proliferation (MTT) (MC3T3-E1 (clone 4) cells [4]): did not alter
